The values below come from publication PMC7891380 (Chemical Biology & Drug Design, 2020).

The experiment concerns multidrug‐resistant A. baumannii. The experiment in a line: Peptide MIC, standard microbroth dilution assay. Type of experiment: cell-based, Acinetobacter baumannii. Conditions: result in words, based on MIC. Background: Broth dilution looks for growth in wells or tubes with falling amounts of substance.

Consider “LKIPGFVKDTLKKVAKGIFSAVAGAMTPS [Hymenochirin‐2B]”, for which the “potency against multidrug‐resistant A. baumannii” value is listed as “high potency”.
